According to patent publication US11040043B2, “Transdermal pharmaceutical compositions comprising active agents” (priority 2009, dated 2021):
Read-outs that look alike come from different tables or passages of the source.

What was measured:
clinical = test: clinical; parameters: species or system human; details: in vivo
Excerpt: A multiple-dose, open-label, dose-escalation study was designed in which 12 healthy male subjects were scheduled to receive 1 of 2 treatments once daily for 3 days with an 11-day washout period between doses.
The objective of this Phase 1 study was to assess the safety and pharmacokinetic (PK) profile of multiple dose administration of 0.25 g and 1.00 g of a 0.07% transdermal estradiol gel in healthy male volunteers. The transdermal gel used had the following formulation: […]
Twelve (12) healthy subjects were enrolled and participated in two open-label treatment periods. Subjects who successfully completed the screening process checked into the research center on Day 1, approximately 1 to 2 hours prior to the first blood draw of each treatment period. For Treatment Period A, 0.25 g of the 0.07% gel was to be administered once daily for three days. During Treatment Period B, 1.0 g of the 0.07% gel was to be administered once daily for three days. Dosing days were to be separated by a washout period of at least 11 days.
Diagnosis and Main Criteria for Inclusion: Healthy adult male volunteers, 18-45 years of age, with body mass index (BMI) between 18 and 30 kg/m2, inclusive, and minimum weight of 50 kg (110 pounds).

[1] = Solubility of ethyl oleate as a function of ethanol concentration; assay type: physicochemical; details: for Amount of Ethyl Oleate solubilised in g/100 g: room temperature, 0.24% estradiol, 5% propylene glycol, 2% oleic acid, Qsf water
Excerpt: In particular, it appears that the more ester is present in the composition, the better the storage depot effect is. […] An upper limit is imposed, however, by the solubility of the fatty acid ester in the composition.

C[C@]12CC[C@@H]3c4ccc(O)cc4CC[C@H]3[C@@H]1CC[C@@H]2O [Estradiol, estradiol]
dose proportionality of exposure (clinical): less than proportional increase in exposure | AUC0-24 (clinical; male, human): 0.7522 ng·h/mL | AUC0-120 (clinical; male, human): 2.933 ng·h/mL | AUC24-48 (clinical; male, human): 0.661 ng·h/mL | AUC48-72 (clinical; male, human): 0.6581 ng·h/mL | AUC(0-t) (clinical; male, human): 4.436 ng·h/mL | Cmax-overall (clinical; male, human): 0.0646 ng/mL | increase in overall systemic exposure based on AUC0-120 (clinical; male, human): 1.26 fold | increase in peak systemic exposure based on Cmax0-120 (clinical; male, human): 1.95 fold | increase of estradiol concentrations above baseline (clinical; male, human): 2- to 3 fold | ratio (0.25 g: 1.00 g) for estradiol AUC0-120 (clinical; male, human): 80.01% | ratio (0.25 g: 1.00 g) for estradiol Cmax0-120 (clinical; male, human): 47.89% | Tmax (clinical; male, human, 0.25 g of 0.07% estradiol gel (Example 10) once daily for 3 days, healthy males, Mean, N 12, read-out: Tmax-overall): 54.8 h | Tmax (clinical; male, human, 0.25 g, first dosing interval, read-out: Estradiol Tmax after administration of the gel): ~13 h | Tmax (clinical; male, human, 0.25 g, third dosing interval, read-out: Estradiol Tmax after administration of the gel): ~3 h | Tmax (clinical; male, human, 1.00 g of 0.07% estradiol gel (Example 10) once daily for 3 days, healthy males, Mean, n 11, read-out: Tmax-overall): 29.8 h | AUC(0-t) (clinical; male, human, AUC0-24 (hr * pg/mL)): 0.477 ng·h/mL | AUC(0-t) (clinical; male, human, AUC0-120 (hr * pg/mL)): 2.33 ng·h/mL | AUC(0-t) (clinical; male, human, AUC0-t (hr * pg/mL)): 3.78 ng·h/mL | AUC (clinical; male, human, AUC24-48 (hr * pg/mL)): 0.503 ng·h/mL | AUC (clinical; male, human, AUC48-72 (hr * pg/mL)): 0.477 ng·h/mL | Cmax (clinical; male, human, Cmax-overall (pg/mL)): 0.0331 ng/mL

CCCCCCCC/C=C\CCCCCCCC(=O)OCC [Ethyl Oleate, ethyl oleate]
Amount of Ethyl Oleate solubilised in g/100 g ([1]; EtOH (96% v/v) 64%): 0.65 g/100 g | Amount of Ethyl Oleate solubilised in g/100 g ([1]; EtOH (96% v/v) 66%): 0.91 g/100 g | Amount of Ethyl Oleate solubilised in g/100 g ([1]; EtOH (96% v/v) 68%): 1.28 g/100 g | Amount of Ethyl Oleate solubilised in g/100 g ([1]; EtOH (96% v/v) 70%): 1.60 g/100 g | Amount of Ethyl Oleate solubilised in g/100 g ([1]; EtOH (96% v/v) 72%): 2.19 g/100 g | Amount of Ethyl Oleate solubilised in g/100 g ([1]; EtOH (96% v/v) 73%): 2.40 g/100 g | maximum ethyl oleate that can be dissolved ([1]; formulation comprising 72% ethanol): ≤ 2.2%
